Assay results taken from patent US10670605B2, “Cysteine reactive probes and uses thereof” (The Scripps Research Institute, priority 2015, dated 2020).
Blank lines part the entries; values can stand above or below the compound they belong to.

Columns and labels:
Test in all cases: Competitive isoTOP-ABPP, cell lysates
Format in all cases: binding
IREB2 C137 (P48200) = biological target: T1, IREB2 C137 (P48200) (Homo sapiens, UniProt P48200)
T1 sequence (P48200 1-963): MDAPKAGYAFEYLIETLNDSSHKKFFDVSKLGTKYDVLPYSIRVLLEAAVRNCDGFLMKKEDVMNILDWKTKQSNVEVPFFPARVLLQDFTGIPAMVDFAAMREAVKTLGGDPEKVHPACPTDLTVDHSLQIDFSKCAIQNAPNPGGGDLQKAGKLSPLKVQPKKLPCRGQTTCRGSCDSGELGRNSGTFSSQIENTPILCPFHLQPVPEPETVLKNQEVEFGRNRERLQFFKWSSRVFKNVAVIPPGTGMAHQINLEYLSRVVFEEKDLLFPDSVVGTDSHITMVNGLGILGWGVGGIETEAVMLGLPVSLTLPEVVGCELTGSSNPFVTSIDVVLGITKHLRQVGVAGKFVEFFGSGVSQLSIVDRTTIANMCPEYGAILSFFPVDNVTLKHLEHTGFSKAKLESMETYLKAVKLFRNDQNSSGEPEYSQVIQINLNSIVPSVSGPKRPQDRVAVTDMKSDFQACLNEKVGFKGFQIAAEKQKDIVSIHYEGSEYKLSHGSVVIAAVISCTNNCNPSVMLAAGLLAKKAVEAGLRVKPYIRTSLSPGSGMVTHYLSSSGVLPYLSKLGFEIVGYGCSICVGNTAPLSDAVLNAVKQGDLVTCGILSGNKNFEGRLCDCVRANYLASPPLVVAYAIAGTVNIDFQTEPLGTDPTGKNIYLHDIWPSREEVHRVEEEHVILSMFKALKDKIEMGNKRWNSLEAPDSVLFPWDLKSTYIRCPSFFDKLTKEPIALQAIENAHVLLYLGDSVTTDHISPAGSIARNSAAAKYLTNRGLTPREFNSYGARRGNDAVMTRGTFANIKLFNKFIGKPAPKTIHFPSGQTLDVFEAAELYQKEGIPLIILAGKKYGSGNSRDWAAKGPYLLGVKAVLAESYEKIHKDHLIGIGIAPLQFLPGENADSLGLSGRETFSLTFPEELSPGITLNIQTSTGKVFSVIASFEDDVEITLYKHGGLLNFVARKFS

RRAGC C377 (Q9HB90) = RRAGC C377 (Q9HB90) (Homo sapiens, UniProt Q9HB90); details: for R value (DMSO/fragment): in vitro, MDA-MB-231
Sequence of RRAGC C377 (Q9HB90) (Q9HB90 2-399 limits assumed): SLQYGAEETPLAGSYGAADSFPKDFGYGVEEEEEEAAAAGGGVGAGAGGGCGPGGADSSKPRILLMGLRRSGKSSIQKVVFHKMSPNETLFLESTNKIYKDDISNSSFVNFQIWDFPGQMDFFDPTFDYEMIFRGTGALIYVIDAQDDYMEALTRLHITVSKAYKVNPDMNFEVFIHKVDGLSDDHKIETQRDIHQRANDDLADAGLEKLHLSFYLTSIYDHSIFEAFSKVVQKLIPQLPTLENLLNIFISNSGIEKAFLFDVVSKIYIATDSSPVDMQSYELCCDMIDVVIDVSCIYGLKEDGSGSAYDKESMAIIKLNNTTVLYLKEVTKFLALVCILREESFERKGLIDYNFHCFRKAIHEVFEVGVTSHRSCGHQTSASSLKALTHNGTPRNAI
Sequence of RRAGC C377 (Q9HB90) (Q7L523 whole entry partner, the tested form may be a part): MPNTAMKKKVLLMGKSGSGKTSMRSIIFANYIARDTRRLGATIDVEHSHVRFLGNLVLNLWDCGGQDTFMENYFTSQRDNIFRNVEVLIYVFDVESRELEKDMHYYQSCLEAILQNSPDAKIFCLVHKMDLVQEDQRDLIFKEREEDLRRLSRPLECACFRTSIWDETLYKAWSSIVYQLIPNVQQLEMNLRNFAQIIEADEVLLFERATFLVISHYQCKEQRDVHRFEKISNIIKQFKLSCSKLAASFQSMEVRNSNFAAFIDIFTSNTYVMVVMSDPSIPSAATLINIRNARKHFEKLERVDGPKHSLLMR

IRF8 C306 (Q02556) = biological target: T2, IRF8 C306 (Q02556) (Homo sapiens, UniProt Q02556)
T2 sequence (Q02556 1-426): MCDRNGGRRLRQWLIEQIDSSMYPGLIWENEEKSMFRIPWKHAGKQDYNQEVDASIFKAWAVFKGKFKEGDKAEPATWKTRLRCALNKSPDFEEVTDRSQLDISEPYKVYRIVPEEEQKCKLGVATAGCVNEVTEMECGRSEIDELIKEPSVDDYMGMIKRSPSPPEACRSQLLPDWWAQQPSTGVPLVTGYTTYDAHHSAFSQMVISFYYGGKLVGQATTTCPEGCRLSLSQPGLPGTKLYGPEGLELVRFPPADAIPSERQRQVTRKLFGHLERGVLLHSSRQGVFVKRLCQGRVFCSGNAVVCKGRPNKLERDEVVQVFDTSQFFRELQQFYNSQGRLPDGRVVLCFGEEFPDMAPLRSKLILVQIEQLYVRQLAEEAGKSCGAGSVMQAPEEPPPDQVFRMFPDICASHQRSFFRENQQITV

CYR61 C39 (O00622) = biological target: T3, CYR61 C39 (O00622) (Homo sapiens, UniProt O00622); details: for isoTOP-ABPP ratio (reactivity profile), O00622_C39: 500 μm in-vitro ramos_231
T3 sequence (O00622 25-381): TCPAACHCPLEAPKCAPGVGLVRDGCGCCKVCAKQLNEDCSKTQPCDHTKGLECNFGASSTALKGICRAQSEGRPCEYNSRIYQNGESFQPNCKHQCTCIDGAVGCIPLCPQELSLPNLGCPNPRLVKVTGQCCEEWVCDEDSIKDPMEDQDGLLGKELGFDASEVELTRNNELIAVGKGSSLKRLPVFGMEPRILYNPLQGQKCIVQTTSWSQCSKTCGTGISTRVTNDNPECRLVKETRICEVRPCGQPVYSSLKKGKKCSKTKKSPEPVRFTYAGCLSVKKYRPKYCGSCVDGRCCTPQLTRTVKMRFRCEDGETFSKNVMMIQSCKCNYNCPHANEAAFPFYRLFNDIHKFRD

Structure (SMILES): COc1ccc2c(c1)CCCN2C(=O)CCl [compound 2]
R value (DMSO/fragment) (IREB2 C137 (P48200); 500 μM, invitro, ramos): 10.5
R value (DMSO/fragment) (RRAGC C377 (Q9HB90); 500 μM): 20.0

Structure (SMILES): C=CC(=O)N(c1ccccc1)c1ccc(Br)cc1 [compound 5]
isoTOP-ABPP ratio, Q02556_C306 (IRF8 C306 (Q02556); 500 μM, invitro, ramos): 2.6

Structure (SMILES): O=C(CCl)N1CCOCC1 [compound 22]
isoTOP-ABPP ratio (reactivity profile), Q9HB90_C377 (RRAGC C377 (Q9HB90); 500 μm in-vitro ramos): 0.9
isoTOP-ABPP ratio (reactivity profile), Q9HB90_C377 (RRAGC C377 (Q9HB90); 500 μm in-vitro ramos_231): 1.7

Structure (SMILES): O=C(CCl)N1CCN(S(=O)(=O)c2ccccc2F)CC1 [compound 10]
isoTOP-ABPP ratio, Q02556_C306 (IRF8 C306 (Q02556); 500 μM, invitro, ramos): 3.6
isoTOP-ABPP ratio, P48200_C137 (IREB2 C137 (P48200); 500 μM, invitro, ramos): 2.1

Structure (SMILES): Cc1ccc(C=C(C#N)C(=O)NCCN2CCOCC2)cc1 [compound 41]
isoTOP-ABPP reactivity ratio, Q02556_C306 (IRF8 C306 (Q02556); 500 μm, in-vitro_ramos): 1.4
isoTOP-ABPP reactivity ratio, P48200_C137 (IREB2 C137 (P48200); 500 μm, in-vitro_ramos_231): 1.2
isoTOP-ABPP reactivity ratio, Q9HB90_C377 (RRAGC C377 (Q9HB90); 500 μm, in-vitro_ramos_231): 1.1

Structure (SMILES): C=CC(=O)N(c1ccccc1)C1CCCCC1 [compound 46]
isoTOP-ABPP reactivity profile ratio, O00622_C39 (CYR61 C39 (O00622); 500 μm, in-vitro_ramos_231): 1.9

Structure (SMILES): O=C(CCl)Nc1ccccc1C1CCCCCC1 [compound 35]
isoTOP-ABPP reactivity ratio, Q02556_C306 (IRF8 C306 (Q02556); 500 μm, in-vitro_ramos): 1.2
isoTOP-ABPP reactivity ratio, P48200_C137 (IREB2 C137 (P48200); 500 μm, in-vitro_ramos): 1.1

Structure (SMILES): N#CC(=Cc1ccc(-c2ccccc2Cl)o1)C(N)=O [compound 42]
isoTOP-ABPP reactivity profile ratio, Q02556_C306 (IRF8 C306 (Q02556); 500 μm, in-vitro_ramos): 0.9

Structure (SMILES): Cn1cc(S(=O)(=O)N2CCOCC2)cc1C(=O)NC(=O)CCl [compound 11]
isoTOP-ABPP ratio, Q02556_C306 (IRF8 C306 (Q02556); 500 μM, invitro, ramos): 3.1
isoTOP-ABPP ratio, P48200_C137 (IREB2 C137 (P48200); 500 μM, invitro, ramos): 3.7
isoTOP-ABPP ratio, O00622_C39 (CYR61 C39 (O00622); 500 μM, invitro, 231): 9.6
isoTOP-ABPP ratio, Q9HB90_C377 (RRAGC C377 (Q9HB90); 500 μM, invitro, ramos): 1.6

Structure (SMILES): C=CC(=O)N1CCC(Cc2ccccc2)CC1 [compound 53]
isoTOP-ABPP reactivity profile ratio, Q9HB90_C377 (RRAGC C377 (Q9HB90); 500 μm, in-vitro_ramos): 1.1

Other lines, results leading:

isoTOP-ABPP ratio (reactivity profile), Q02556_C306 (IRF8 C306 (Q02556); 500 μm in-vitro ramos_231): 1.1
isoTOP-ABPP ratio (reactivity profile), P48200_C137 (IREB2 C137 (P48200); 500 μm in-vitro ramos_231): 1.4
isoTOP-ABPP ratio (reactivity profile), O00622_C39 (CYR61 C39 (O00622)): 1.0
isoTOP-ABPP ratio (reactivity profile), Q9HB90_C377 (RRAGC C377 (Q9HB90); 500 μm in-vitro ramos_231): 1.0
Structure (SMILES): CC(C)CCOCCNC(=O)CCl [compound 27]

R value (DMSO/fragment) (IRF8 C306 (Q02556); 500 μM, invitro, ramos): 5.6
R value (DMSO/fragment) (CYR61 C39 (O00622); 500 μM, in vitro, MDA-MB-231): 4.0
R value (DMSO/fragment) (RRAGC C377 (Q9HB90); 500 μM): 3.7
Structure (SMILES): O=C(CCl)Nc1cc(C(F)(F)F)cc(C(F)(F)F)c1 [compound 3]

isoTOP-ABPP ratio (reactivity profile), Q9HB90_C377 (RRAGC C377 (Q9HB90); 500 μm in-vitro ramos_231): 1.4
Structure (SMILES): O=C(CCl)NC12CC3CC(CC(C3)C1)C2 [compound 21]

isoTOP-ABPP reactivity ratio, Q9HB90_C377 (RRAGC C377 (Q9HB90); 500 μm, in-vitro_ramos): 1.5
Structure (SMILES): CC(C)(C)c1cc(NC(=O)CCl)on1 [compound 32]

isoTOP-ABPP reactivity profile ratio, P48200_C137 (IREB2 C137 (P48200); 500 μm, in-vitro_ramos): 1.3
Structure (SMILES): O=C(CCl)Nc1ccc(-c2ccccc2)cc1 [compound 52]

isoTOP-ABPP ratio (reactivity profile), O00622_C39 (CYR61 C39 (O00622)): 1.0
isoTOP-ABPP ratio (reactivity profile), Q9HB90_C377 (RRAGC C377 (Q9HB90); 500 μm in-vitro ramos_231): 1.3
Structure (SMILES): COc1ccccc1OCCNC(=O)CCl [compound 28]
